Patent US20260335263A1, “USE OF TROPIC ACID AND DERIVATIVE THEREOF IN PREPARATION OF DRUG FOR TREATING PSORIASIS” (GUANGDONG PHARMACEUTICAL UNIVERSITY, priority 2022, published 2026)

Key:
[1] = Solubility observed in structural identification; format: physicochemical
[2] = tested on: Psoriasis in Mice Induced by Imiquimod; assay: Histomorphological observation (PASI scoring and day 7 photographs of back skin lesions) of psoriasis in mice induced by imiquimod; format: in vivo, male Balb/c mice; details: for skin lesion scores (overall score), high-dose: vs high-dose tropic acid, compound III P<0.01, compound IV P<0.05; for skin erythema score, low-dose / skin lesion scores (overall score), low-dose: low-dose 3 mg/kg·d by gavage; for skin erythema score, low-dose: compared with low-dose tropic acid, P<0.01; for skin lesion scores (overall score), low-dose: vs low-dose tropic acid; for therapeutic effect on back skin injury induced by imiquimod: overall conclusion, mouse model of psoriasis; for therapeutic effects compared with tropic acid: summary statement
Text: 110 male Balb/c mice (8-10 weeks, 20-25 g each) were anesthetized by intraperitoneal injection of 10% chloral hydrate, and approximately 2 cm×4 cm of back hair was shaved off. The mice were randomly divided into 11 groups, with 10 mice in each group, including a blank control group, a model group, a positive drug group, a high-dose tropic acid group (A), a low-dose tropic acid group (B), a high-dose 4-hydroxy-α-(hydroxymethyl)phenylacetic acid group (C), a low-dose 4-hydroxy-α-(hydroxymethyl)phenylacetic acid group (D), a high-dose 3,4-dihydroxy-α-(hydroxymethyl)phenylacetic acid group (E), a low-dose 3,4-dihydroxy-α-(hydroxymethyl)phenylacetic acid group (F), a high-dose 3,4,5-trihydroxy-α-(hydroxymethyl)phenylacetic acid group (G), and a low-dose 3,4,5-trihydroxy-α-(hydroxymethyl)phenylacetic acid group (H) of. Except for the blank control group, which received no treatment, all other groups were treated with 50 mg of 5% imiquimod cream daily to prepare a psoriasis mouse model. All groups were administered simultaneously, with dosing twice daily, and the grouping and dosing regimen are detailed in Table 1. The treatment was continued for 6 days. On the 7th day, the skin lesions of the mice were photographed and recorded, after which the mice were euthanized and their back skin was taken for further use.
Histomorphological observation: Starting from the first day of modeling, the degree of erythema, scales, and inflammatory infiltration thickening on the back of mice were scored daily according to the PASI scoring criteria. The PAIS scoring criteria were as follows: 0-none; 1-mild; 2-moderate; 3-severe cases; 4-extremely severe. The more severe the degree of skin damage, the higher the score. The three points were summed to obtain the total PASI score. The average score of each group of mice were then plotted to create a trend line to observe the changes in skin lesions of each group of mice. Digital photography was used to record the skin lesions on the back of the mice in each group on the 7th day for observation and comparison.

[3] = tested on: Psoriasis in Mice Induced by Imiquimod; assay: Histopathological examination (HE staining, epidermal thickness) of back skin of mice with imiquimod-induced psoriasis; format: in vivo, male Balb/c mice; details: day 7, HE staining, compared with the model group
Text: 110 male Balb/c mice (8-10 weeks, 20-25 g each) were anesthetized by intraperitoneal injection of 10% chloral hydrate, and approximately 2 cm×4 cm of back hair was shaved off. […] On the 7th day, the skin lesions of the mice were photographed and recorded, after which the mice were euthanized and their back skin was taken for further use.
Histopathological examination: On the 7th day of modeling, the mice were euthanized, and the back skin of each group of mice was cut and fixed in 4% paraformaldehyde for 24 hours, embedded in paraffin, and sliced into 4 μm sections. HE staining, sealing, and observation of histopathological changes under microscope were performed, and the epidermal thickness was measured using the scale function of the cellSens standard.

[4] = high-dose 6 mg/kg·d by gavage, after 6 days, compared with high-dose tropic acid, P<0.05

solubility in methanol ([1]; methanol) | solubility in water ([1]; water) | Structure (SMILES) | degree of inflammatory infiltration and thickening of the skin [2, 4] | degree of scale reduction [2, 4] | skin erythema score, high-dose [2, 4] | skin lesion scores (overall score), high-dose ([2]; high-dose 6 mg/kg·d by gavage) | skin erythema score, low-dose ([2]; after 6 days) | skin lesion scores (overall score), low-dose ([2]; P<0.05) | therapeutic effect on back skin injury induced by imiquimod [2] | therapeutic effects compared with tropic acid [2] | incomplete skin keratinization [3] | thickness of the stratum spinosum ([3]; positive drug = dexamethasone 5 mg/kg·d by gavage)
easily soluble | easily soluble | O=C(O)C(CO)c1ccc(O)c(O)c1 (stereo not drawn) [compound III, 3,4-dihydroxy-α-(hydroxymethyl)phenylacetic acid] | significant decrease | superior | significantly reduced | superior | significantly reduced | superior | best therapeutic effect | more significant therapeutic effects than tropic acid |  | 
 |  | O=C(O)C(CO)c1cc(O)c(O)c(O)c1 (stereo not drawn) [compound IV, 3,4,5-trihydroxy-α-(hydroxymethyl)phenylacetic acid] | significant decrease | superior |  | superior | significantly reduced | superior | best therapeutic effect | more significant therapeutic effects than tropic acid |  | 
 |  | C[C@@H]1C[C@H]2[C@@H]3CCC4=CC(=O)C=C[C@]4(C)[C@@]3(F)[C@@H](O)C[C@]2(C)[C@@]1(O)C(=O)CO [positive drug, dexamethasone] |  |  |  |  |  |  |  |  | significantly improvements | significantly reduced
